Data published in patent publication US20200079819A1, “Use of a Vaccine Targeting a Cryptic Tert Epitope, for Treating Lung Cancer in a HLA-A*0201-Positive Never-Smoker or Light-Former Smoker Patient” (Vaxon Biotech, priority 2017, published 2020).
Several values for one entry are separate records, joined by “and”; a condition that tells them apart may be missing. Identical values can stand only once. No end group written: not given here.

Test system: HLA-A*0201 positive patients with NSCLC expressing TERT
Test: Vx-001-201 randomized double blind phase IIb clinical trial (OS, TTF, 12 months survival)
Assay type: in vivo, human
Source text: The Vx-001-201 study is a randomized, double blind multicenter study done in 70 centers in France, Germany, Spain, Italy, Greece, Poland, Romania and Czech Republic. Key eligibility criteria were a) non small cell lung cancer (NSCLC), b) stage IV or recurrent stage I-III, c) disease control after platinum based first line chemotherapy according to RECIST 1.1 criteria, d) HLA-A*0201 positivity, e) tumors expressing TElomerase Reverse Transcriptase (TERT), f) ECOG 0 or 1 g) absence of brain metastasis.
a) Principal endpoint: overall survival (OS) measured from randomization
b) Secondary endpoints: • Time to Treatment Failure (TTF) measured from randomization • OS at 12 months
Patients who fulfilled all inclusion criteria were randomized within 4 weeks after the end of first line chemotherapy.
The vaccination protocol consisted in six vaccinations at three weeks interval. The optimized Vx-001/TERT572Y was used in the first two vaccinations and the native Vx-001/TERT572 in the following four vaccinations. Patients who continued controlling their disease after the sixth vaccination received boost vaccination with the Vx-001/TERT572 every three months. Vaccination was stopped at disease progression (FIG. 1).
The primary and secondary endpoints were analysed in the Full Analysis Set composed of all patients who fulfilled the […] five main criteria a) NSCLC, b) stage IV or recurrent stage I-III, and c) disease control after first line chemotherapy, d) HLA-A*0201 positivity and e) TERT expressing tumors.
We used the Kaplan-Meier method to estimate OS and TTF in each arm and a Cox proportional hazards regression model to estimate Hazard Ratio (HR) relating OS and TTF to the treatment effect.

[1] = FAS patients, all, Vx-001 vs placebo
[2] = FAS, 1st line chemotherapy CARBO (n = 119), Vx-001 arm
[3] = FAS, 1st line chemotherapy CDDP (n = 69), Vx-001 arm
[4] = FAS, Current smoker (n = 50), including light-smoker (≤25 years) (n = 5), Vx-001 arm
[5] = FAS, Female (n = 59), Vx-001 arm
[6] = FAS, Male (n = 131), Vx-001 arm
[7] = FAS, NS + Former smokers (<30 years)(n = 61), Vx-001 arm
[8] = FAS, NS + Former smokers (≤20 years)(n = 47), Vx-001 arm
[9] = FAS, Never smokers (NS) (n = 25), Vx-001 arm
[10] = FAS, age <65 years (n = 92), Vx-001 arm
[11] = FAS, age >65 years (n = 98), Vx-001 arm
[12] = FAS, response to chemotherapy OR (n = 87), Vx-001 arm
[13] = FAS, response to chemotherapy SD (n = 103), Vx-001 arm
[14] = FAS, sub-group NSQ (n = 118), Vx-001 arm
[15] = FAS, sub-group SQ (n = 72), Vx-001 arm
[16] = NS + Former smokers (≤25 years), all (n = 55), Vx-001 arm
[17] = never-smokers and light-smokers (≤25 years, stopped or not), <65 y (n = 28), Vx-001 arm
[18] = never-smokers and light-smokers (≤25 years, stopped or not), >65 y (n = 32), Vx-001 arm
[19] = never-smokers and light-smokers (≤25 years, stopped or not), All (n = 60), Vx-001 arm
[20] = never-smokers and light-smokers (≤25 years, stopped or not), ECOG 0 (n = 28), Vx-001 arm
[21] = never-smokers and light-smokers (≤25 years, stopped or not), ECOG 1 (n = 32), Vx-001 arm
[22] = never-smokers and light-smokers (≤25 years, stopped or not), Female (n = 25), Vx-001 arm
[23] = never-smokers and light-smokers (≤25 years, stopped or not), Male (n = 35), Vx-001 arm
[24] = never-smokers and light-smokers (≤25 years, stopped or not), NSQ (n = 46), Vx-001 arm

Q: Which results are given for “Vx-001: vaccine composed of two nine-amino-acid peptides, TERT572 (SEQ ID No: 1) and TERT572Y (SEQ ID No: 2), administered separately with adjuvant Montanide ISA51 VG (chain 1 RLFFYRKSV; chain 2 YLFFYRKSV; not fully specified)”?
A: 12 months survival (FAS patients, all, Vx-001 arm): 58%; OS (median) (FAS patients, all, Vx-001 arm): 14.3 months; TTF (median) (FAS patients, all, Vx-001 arm): 3.6 months; HR (OS) [1]: 0.97; HR (TTF) [1]: 0.88; 12 months OS (%) [2]: 58.2%; Median survival (months) [2]: 14.3 months; HR (OS) (FAS, 1st line chemotherapy CARBO (n = 119), Vx-001 vs placebo): 1.06; 12 months OS (%) [3]: 59%; Median survival (months) [3]: 15 months; HR (OS) (FAS, 1st line chemotherapy CDDP (n = 69), Vx-001 vs placebo): 0.81; 12 months OS (%) [4]: 37.5%; Median survival (months) [4]: 9 months; HR (OS) (FAS, Current smoker (n = 50), including light-smoker (≤25 years) (n = 5), Vx-001 vs placebo): 1.39; 12 months OS (%) [5]: 53.3%; Median survival (months) [5]: 13.2 months; HR (OS) (FAS, Female (n = 59), Vx-001 vs placebo): 1.52; 12 months OS (%) [6]: 61%; Median survival (months) [6]: 15 months; HR (OS) (FAS, Male (n = 131), Vx-001 vs placebo): 0.81; 12 months OS (%) [7]: 69%; Median survival (months) [7]: 16.2 months; HR (OS) (FAS, NS + Former smokers (<30 years)(n = 61), Vx-001 vs placebo): 0.67; 12 months OS (%) [8]: 72.7%; Median survival (months) [8]: 15.3 months; HR (OS) (FAS, NS + Former smokers (≤20 years)(n = 47), Vx-001 vs placebo): 0.67; 12 months OS (%) [9]: 70%; Median survival (months) [9]: 14.1 months; HR (OS) (FAS, Never smokers (NS) (n = 25), Vx-001 vs placebo): 0.76; 12 months OS (%) [10]: 57.7%; Median survival (months) [10]: 13.4 months; HR (OS) (FAS, age <65 years (n = 92), Vx-001 vs placebo): 1.2; 12 months OS (%) [11]: 59%; Median survival (months) [11]: 15 months; HR (OS) (FAS, age >65 years (n = 98), Vx-001 vs placebo): 0.78; 12 months OS (%) [12]: 69%; Median survival (months) [12]: 15.3 months; HR (OS) (FAS, response to chemotherapy OR (n = 87), Vx-001 vs placebo): 0.89; 12 months OS (%) [13]: 52%; Median survival (months) [13]: 14.3 months; HR (OS) (FAS, response to chemotherapy SD (n = 103), Vx-001 vs placebo): 0.99; 12 months OS (%) [14]: 55%; Median survival (months) [14]: 13.4 months; HR (OS) (FAS, sub-group NSQ (n = 118), Vx-001 vs placebo): 0.88; 12 months OS (%) [15]: 64%; Median survival (months) [15]: 14.3 months; HR (OS) (FAS, sub-group SQ (n = 72), Vx-001 vs placebo): 1.13; 12 months OS (%) [16]: 73% and 73.1%; Median survival (months) [16]: 16.2 months; 12 months OS [17]: 76.9%; OS (months) [17]: 20.2 months; HR (OS) (never-smokers and light-smokers (≤25 years, stopped or not), <65 y (n = 28), Vx-001 vs placebo): 0.50; 12 months OS [18]: 64.3%; OS (months) [18]: 15.3 months; HR (OS) (never-smokers and light-smokers (≤25 years, stopped or not), >65 y (n = 32), Vx-001 vs placebo): 0.62; 12 months OS [19]: 70.4%; OS (months) [19]: 20.2 months; HR (OS) (never-smokers and light-smokers (≤25 years, stopped or not), All (n = 60), Vx-001 vs placebo): 0.55; 12 months OS [20]: 66.7%; OS (months) [20]: 24.7 months; HR (OS) (never-smokers and light-smokers (≤25 years, stopped or not), ECOG 0 (n = 28), Vx-001 vs placebo): 0.52; 12 months OS [21]: 73.3%; OS (months) [21]: 15.3 months; HR (OS) (never-smokers and light-smokers (≤25 years, stopped or not), ECOG 1 (n = 32), Vx-001 vs placebo): 0.49; 12 months OS [22]: 61.5%; OS (months) [22]: 15.3 months; HR (OS) (never-smokers and light-smokers (≤25 years, stopped or not), Female (n = 25), Vx-001 vs placebo): 0.95; 12 months OS [23]: 78.6%; OS (months) [23]: 24.7 months; HR (OS) (never-smokers and light-smokers (≤25 years, stopped or not), Male (n = 35), Vx-001 vs placebo): 0.34; 12 months OS [24]: 70.0%; OS (months) [24]: 20.2 months; HR (OS) (never-smokers and light-smokers (≤25 years, stopped or not), NSQ (n = 46), Vx-001 vs placebo): 0.50; 12 months OS (never-smokers and light-smokers (≤25 years, stopped or not), SQ (n = 14), Vx-001 arm): 71.4%
